Laboratory results reported in PMC7815786, “Antimicrobial effects of syndiotactic polypeptides” (Scientific Reports, 2021).
≈ marks a conversion by molar mass, not a printed value. Where a SMILES comes first, the peptide text is derived from it. [ ]: non-standard residue; d: D form.

Key:
[1] = tested on: Escherichia coli MG1655; assay type: cell-based
Protocol: (§1) The antibacterial activity was performed using micro-dilution method as per Clinical and Laboratory Standards Institute (CLSI). Gentamicin resistant MRSA (ATCC 33592), Mycobacterium smegmatis (ATCC607) were procured from ATCC, Escherichia coli MG1655 has been sourced fromChaudhary laboratory, BSBE, IIT Guwahati. The clinical isolates was provided by Dr. Chimanjita Phukan (Guwahati Medical College Hospital, Bhangagarh, Guwahati, Assam). The media broth was procured from Himedia Laboratories. Overnight culture of Gentamicin resistant MRSA (ATCC 33592), Escherichia coli MG1655, clinical isolates [(S. aureus (drug resistant) and E. coli (multidrug resistant) supplementary table 2] were diluted to 10^6 CFU/mL in Nutrient Broth (NB). 100 µL of broth containing 50 µL of bacterial suspension and test peptides at various concentrations were incubated for 12 to 16 h at 37 °C[33]. Similarly, Mycobacterium smegmatis (ATCC607) was diluted to 10^6 CFU/mL in M7H9 media. 50 µL of bacterial suspension was treated with 50 µL peptides at various concentrations. The peptide bacterial suspension was incubated for 72 h at 37 °C. The antimicrobial potencies of the peptides were evaluated at 600 nm by a comparative assessment with untreated bacterial suspension (negative control). The Minimal Inhibitory Concentration (MIC) was reported at the lowest concentration, where no growth was observed, as per standard protocols. The serum sensitivity experiment was similar to antibacterial activity. In this experiment, 50% serum containing media was used, instead of media alone. The experiment with human serum was performed as per IHEC (Institute Human Ethics Committee) guidelines, at IIT Guwahati hospital, from healthy adult donors. All the protocols were approved by the IHEC, and performed, with the informed consent and written approval from the subjects.

[2] = tested on: Mycobacterium smegmatis (ATCC607); assay type: cell-based; conditions: ATCC607, 72 h
Protocol: as §1

[3] = tested on: Gentamicin resistant MRSA (ATCC 33592); assay type: cell-based, Staphylococcus aureus
Protocol: as §1

[4] = tested on: bacterial species tested (not specified); assay type: cell-based; conditions: wet lab experiments, bacterial species not given
Protocol: as §1
Several modes of action of AMP’s have been proposed, and the contentious issue primarily is whether the peptide is targeting the membrane, followed by its disruption or it penetrates the membrane invading cytoplasm, affecting cellular metabolism. […]

[5] = tested on: clinical isolate of drug resistant Staphylococcus aureus (sample 28401); assay type: cell-based; conditions: clinical isolate of drug resistant (sample 28401)
Protocol: as §1
(§2) Primary screening of the antibacterial activity of the peptides was performed against clinical isolates obtained from a tertiary referral hospital (Details in supplementary information, section 3). Resistant Staphylococcus aureus (Gram-positive) and E.coli (Gram negative) are the two clinical bacterial strains assayed in this study. The results of the antimicrobial assay are summarized in Fig. 4 and supplementary Table 2.
(§3) Supplementary Table 2. The in-vitro antimicrobial activity of designed peptides against clinical isolates of multi-drug resistant Staphylococcus aureus and Escherichia coli. The concentration is expressed in µM.

[6] = tested on: clinical isolate of multi-drug resistant Escherichia coli (sample 28162); assay type: cell-based; conditions: clinical isolate of multi-drug resistant (sample 28162)
Protocol: as §1, §2, §3

Compound | MIC S. aureus clinical isolate [5] | MIC E.coli clinical isolate [6] | MIC E. coli, Medium [1] | MIC M.smegmatis, Medium [2] | MIC Gentamicin resistant MRSA, Medium [3] | MIC values (summary in discussion) [4]
CC(C)[C@H](NC(=O)[C@H](NC(=O)[C@H](CCCCN)NC(=O)[C@@H](CCCCN)NC(=O)[C@H](CCCCN)NC(=O)[C@H](NC(=O)[C@@H](NC(=O)[C@H](NC(=O)[C@H](CCCCN)NC(=O)[C@@H](CCCCN)NC(=O)[C@@H](N)CCCCN)C(C)C)C(C)C)C(C)C)C(C)C)C(=O)N[C@H](Cc1c[nH]c2ccccc12)C(=O)N[C@@H](CCCCN)C(N)=O [AS06] (H-K[dK]K[dV]V[dV]K[dK]K[dV]V[dW]K-NH2) | – | – | 25 µM (≈ 39.9 µg/mL) | 25 µM (≈ 39.9 µg/mL) | 50 µM (≈ 79.8 µg/mL) | ~50 µM (≈ 79.8 µg/mL)
CC(C)C[C@H](NC(=O)[C@@H](Cc1c[nH]c2ccccc12)NC(=O)[C@H](CC(C)C)NC(=O)[C@@H](Cc1c[nH]c2ccccc12)NC(=O)[C@H](CCCNC(=N)N)NC(=O)[C@@H](CCCCN)NC(=O)[C@@H](N)CCCNC(=N)N)C(=O)N[C@H](CCCCN)C(=O)N[C@@H](CCCNC(=N)N)C(=O)N[C@H](CCCCN)C(=O)N[C@@H](Cc1c[nH]c2ccccc12)C(=O)N[C@H](CC(C)C)C(=O)N[C@@H](Cc1c[nH]c2ccccc12)C(N)=O [AS02] (H-R[dK]R[dW]L[dW]L[dK]R[dK]W[dL]W-NH2) | 50 µM (≈ 97.7 µg/mL) | 50 µM (≈ 97.7 µg/mL) | 6.25 µM (≈ 12.2 µg/mL) | 3.13 µM (≈ 6.12 µg/mL) | 3.13 µM (≈ 6.12 µg/mL) | –
CC(C)[C@@H](NC(=O)[C@H](Cc1c[nH]c2ccccc12)NC(=O)[C@H](NC(=O)[C@H](CCCCN)NC(=O)[C@@H](CCCCN)NC(=O)[C@H](CCCCN)NC(=O)[C@@H](Cc1c[nH]c2ccccc12)NC(=O)[C@@H](N)Cc1c[nH]c2ccccc12)C(C)C)C(=O)N[C@@H](CCCCN)C(=O)N[C@H](CCCCN)C(=O)N[C@@H](CCCCN)C(=O)N[C@H](Cc1c[nH]c2ccccc12)C(=O)N[C@@H](Cc1c[nH]c2ccccc12)C(N)=O [AS04] (H-W[dW]K[dK]K[dV]W[dV]K[dK]K[dW]W-NH2) | 50 µM (≈ 95.8 µg/mL) | 25 µM (≈ 47.9 µg/mL) | 3.13 µM (≈ 6 µg/mL) | 6.25 µM (≈ 12 µg/mL) | 1.6 µM (≈ 3.06 µg/mL) | –
CC(C)[C@H](NC(=O)[C@@H](Cc1c[nH]c2ccccc12)NC(=O)[C@H](Cc1c[nH]c2ccccc12)NC(=O)[C@@H](CCCCN)NC(=O)[C@H](CCCNC(=N)N)NC(=O)[C@@H](CCCCN)NC(=O)[C@@H](NC(=O)[C@H](NC(=O)[C@H](Cc1c[nH]c2ccccc12)NC(=O)[C@@H](Cc1c[nH]c2ccccc12)NC(=O)[C@H](CCCNC(=N)N)NC(=O)[C@@H](CCCCN)NC(=O)[C@@H](N)CCCNC(=N)N)C(C)C)C(C)C)C(N)=O [AS01] (H-R[dK]R[dW]W[dV]V[dK]R[dK]W[dW]V-NH2) | – | – | 3.13 µM (≈ 5.99 µg/mL) | 6.25 µM (≈ 12 µg/mL) | 6.25 µM (≈ 12 µg/mL) | –
CC(C)[C@H](NC(=O)[C@H](NC(=O)[C@H](Cc1c[nH]c2ccccc12)NC(=O)[C@@H](Cc1c[nH]c2ccccc12)NC(=O)[C@H](CCCCN)NC(=O)[C@@H](CCCCN)NC(=O)[C@H](CCCCN)NC(=O)[C@H](NC(=O)[C@H](Cc1c[nH]c2ccccc12)NC(=O)[C@@H](Cc1c[nH]c2ccccc12)NC(=O)[C@H](CCCCN)NC(=O)[C@@H](CCCCN)NC(=O)[C@@H](N)CCCCN)C(C)C)C(C)C)C(N)=O [AS03] (H-K[dK]K[dW]W[dV]K[dK]K[dW]W[dV]V-NH2) | 25 µM (≈ 45.7 µg/mL) | 25 µM (≈ 45.7 µg/mL) | 6.25 µM (≈ 11.4 µg/mL) | 6.25 µM (≈ 11.4 µg/mL) | 3.13 µM (≈ 5.72 µg/mL) | 1 to 10 µM
CC(C)C[C@@H](NC(=O)[C@H](Cc1c[nH]c2ccccc12)NC(=O)[C@@H](CC(C)C)NC(=O)[C@@H](N)Cc1c[nH]c2ccccc12)C(=O)N[C@@H](Cc1c[nH]c2ccccc12)C(=O)N[C@H](CC(C)C)C(=O)N[C@@H](Cc1c[nH]c2ccccc12)C(=O)N[C@@H](C(=O)N[C@@H](CCCCN)C(=O)N[C@H](CCCCN)C(=O)N[C@@H](C)C(=O)N[C@H](CCCCN)C(=O)N[C@@H](C)C(=O)N[C@H](CCCCN)C(=O)N[C@@H](CCCCN)C(N)=O)C(C)C [AS08] (H-W[dL]W[dL]W[dL]W[dV]K[dK]A[dK]A[dK]K-NH2) | – | – | 6.25 µM (≈ 12.4 µg/mL) | 6.25 µM (≈ 12.4 µg/mL) | 6.25 µM (≈ 12.4 µg/mL) | 1 to 10 µM
